Here are results for 22 compounds from patent US20240101546A1, “HETEROARYL-ACETYLENES, PHARMACEUTICAL COMPOSITIONS THEREOF, AND THEIR THERAPEUTIC APPLICATIONS” (Eubulus Biotherapeutics Inc., priority 2020, published 2024).

Bounds are passed on as bounds.

The subject of this assay is lung cancer cell line NCI-H82. The assay can be described thus: Cell proliferation assay, NCI-H82 (CELL-TITER GLO). Format: cell-based. The settings on record: Homo sapiens, NCI-H82, 72 h, NCI-H82 cells, 72 h incubation, cell viability by CELL-TITER GLO, top concentration 1 μM; read-out: EC50, Inhibition of NCl-H82 Cell Proliferation. The protocol: The activity of a compound was determined in a cell proliferation assay using the lung cancer cell line NCI-H82. Cells (1,000 cells per well) were cultured with RPMI1640 in a 384-well tissue culture plate. After incubated overnight, the compound was added at predetermined concentrations, starting with 1 μM and followed by a 3-fold serial dilution. After the cells were incubated for 72 h, cell viability was determined using a CELL-TITER GLO assay. The CELL-TITER GLO reagent (25 μL) was added to each well and the luminescence was measured by a multimode microplate reader after a brief period of shaking. EC50 values were determined for the compound. The results are summarized in Table 1, wherein A represents a value no greater than 200 nM, B represents a value greater than 200 nM but no greater than 1 μM, C represents a value greater than 1 μM but no greater than […], and D represents a value greater than 5 μM.

Consider `C#Cc1nc(NC(=O)N[C@@H](COC(N)=O)c2ccc(-c3cccnc3C3(C#N)CC3)cc2)cs1` [Compound A63, (R)-2-(4-(2-(1-Cyanocyclopropyl)pyridin-3-yl)phenyl)-2-(3-(2-ethynylthiazol-4-yl)ureido)ethyl carbamate], for which the EC50 is ≤ 200 nM.
Turning to `C#Cc1nc(NC(=O)N[C@@H](CO)c2ccc(-c3cc(F)cnc3C3(C#N)CC3)cc2)cs1` [Compound A64, (R)-1-(1-(4-(2-(1-Cyanocyclopropyl)-5-fluoropyridin-3-yl)phenyl)-2-hydroxy-ethyl)-3-(2-ethynylthiazol-4-yl)urea], the EC50 is ≤ 200 nM.
As for `C#Cc1nc(NC(=O)N[C@@H](CO)c2ccc(-c3cccnc3C3(C#N)CC3)c(Cl)c2)cs1` [Compound A65, (R)-1-(1-(3-Chloro-4-(2-(1-cyanocyclopropyl)pyridin-3-yl)phenyl)-2-hydroxy-ethyl)-3-(2-ethynylthiazol-4-yl)urea], the EC50 was ≤ 200 nM.
Take `C#Cc1nc(NC(=O)N[C@H](CO)c2ccc(-c3cccnc3C3(C#N)CC3)c(Cl)c2)cs1` [Compound A66, (S)-1-(1-(3-Chloro-4-(2-(1-cyanocyclopropyl)pyridin-3-yl)phenyl)-2-hydroxy-ethyl)-3-(2-ethynylthiazol-4-yl)urea]: the EC50 is ≤ 200 nM.
With `C#Cc1nc(NC(=O)N(C)[C@@H](CO)c2ccc(-c3cccnc3C3(C#N)CC3)c(Cl)c2)cs1` [Compound A67, (R)-1-(1-(3-Chloro-4-(2-(1-cyanocyclopropyl)pyridin-3-yl)phenyl)-2-hydroxy-ethyl)-3-(2-ethynylthiazol-4-yl)-1-methylurea] the figure was ≤ 200 nM; with `C#Cc1nc(NC(=O)N[C@@H](CO)c2ccc(-c3cccnc3C3(C#N)CC3)c(F)c2)cs1` [Compound A68, (R)-1-(1-(4-(2-(1-Cyanocyclopropyl)pyridin-3-yl)-3-fluorophenyl)-2-hydroxy-ethyl)-3-(2-ethynylthiazol-4-yl)urea], ≤ 200 nM.
Regarding `C#Cc1nc(NC(=O)N[C@@H](COC(N)=O)c2ccc(-c3cccnc3C3(C#N)CC3)c(Cl)c2)cs1` [Compound A69, (R)-2-(3-Chloro-4-(2-(1-cyanocyclopropyl)pyridin-3-yl)phenyl)-2-(3-(2-ethynyl-thiazol-4-yl)ureido)ethyl carbamate], the EC50 was ≤ 200 nM.
Consider `C#Cc1nc(NC(=O)N(C)[C@@H](COC(N)=O)c2ccc(-c3cccnc3C3(C#N)CC3)c(Cl)c2)cs1` [Compound A70, (R)-2-(3-Chloro-4-(2-(1-cyanocyclopropyl)pyridin-3-yl)phenyl)-2-(3-(2-ethynyl-thiazol-4-yl)-1-methylureido)ethyl carbamate], for which the EC50 was ≤ 200 nM.
With `C#Cc1nnc(NC(=O)N[C@@H](CO)c2ccc(-c3cccnc3C3(C#N)CC3)c(Cl)c2)s1` [Compound A71, (R)-1-(1-(3-Chloro-4-(2-(1-cyanocyclopropyl)pyridin-3-yl)phenyl)-2-hydroxy-ethyl)-3-(5-ethynyl-1,3,4-thiadiazol-2-yl)urea], the EC50 is ≤ 200 nM.
Turning to `C#Cc1nc(NC(=O)N[C@@H](CS(C)(=O)=O)c2ccc(-c3cccnc3C3(C#N)CC3)c(Cl)c2)cs1` [Compound A72, (R)-1-(1-(3-Chloro-4-(2-(1-cyanocyclopropyl)pyridin-3-yl)phenyl)-2-(methyl-sulfonyl)ethyl)-3-(2-ethynylthiazol-4-yl)urea], the EC50 is ≤ 200 nM.
With `C#Cc1nc(NC(=O)N[C@@H](CS(N)(=O)=O)c2ccc(-c3cccnc3C3(C#N)CC3)c(Cl)c2)cs1` [Compound A73, (R)-2-(3-Chloro-4-(2-(1-cyanocyclopropyl)pyridin-3-yl)phenyl)-2-(3-(2-ethynyl-thiazol-4-yl)ureido)ethanesulfonamide] the figure was ≤ 200 nM; with `C#Cc1nc(NC(=O)N[C@@H](C(=O)NC)c2ccc(-c3cccnc3C3(C#N)CC3)c(Cl)c2)cs1` [Compound A74, (R)-2-(3-Chloro-4-(2-(1-cyanocyclopropyl)pyridin-3-yl)phenyl)-2-(3-(2-ethynyl-thiazol-4-yl)ureido)-N-methylacetamide], ≤ 200 nM.
Take `C#Cc1nc(NC(=O)N[C@@H](CO)c2ccc(-c3ccc(F)cc3C3(C#N)CC3)cn2)cs1` [Compound A75, (R)-1-(1-(5-(2-(1-Cyanocyclopropyl)-4-fluorophenyl)pyridin-2-yl)-2-hydroxy-ethyl)-3-(2-ethynylthiazol-4-yl)urea]: the EC50 is ≤ 200 nM.
For `C#Cc1nc(NC(=O)N[C@@H](COC(N)=O)c2ccc(-c3ccc(F)cc3C3(C#N)CC3)cn2)cs1` [Compound A76, (R)-2-(5-(2-(1-Cyanocyclopropyl)-4-fluorophenyl)pyridin-2-yl)-2-(3-(2-ethynyl-thiazol-4-yl)ureido)ethyl carbamate], the EC50 is ≤ 200 nM.
Turning to `C#Cc1nc(NC(=O)N[C@@H](CO)c2ccc(-c3cc(F)ccc3C3(C#N)CC3)cn2)cs1` [Compound A77, (R)-1-(1-(5-(2-(1-Cyanocyclopropyl)-5-fluorophenyl)pyridin-2-yl)-2-hydroxyethyl)-3-(2-ethynylthiazol-4-yl)urea], the EC50 was ≤ 200 nM.
With `C#Cc1nc(NC(=O)N[C@@H](CO)c2ccc(-c3c(F)cccc3C3(C#N)CC3)cn2)cs1` [Compound A78, (R)-1-(1-(5-(2-(1-Cyanocyclopropyl)-6-fluorophenyl)pyridin-2-yl)-2-hydroxy-ethyl)-3-(2-ethynylthiazol-4-yl)urea] the figure was ≤ 200 nM; with `C#Cc1nc(NC(=O)N[C@@H](CO)c2ccc(-c3c(F)cc(F)cc3C3(C#N)CC3)cn2)cs1` [Compound A79, (R)-1-(1-(5-(2-(1-Cyanocyclopropyl)-4,6-difluorophenyl)pyridin-2-yl)-2-hydroxyethyl)-3-(2-ethynylthiazol-4-yl)urea], ≤ 200 nM; with `C#Cc1nc(NC(=O)N[C@@H](CO)c2ccc(-c3ccccc3C3CC3(F)F)cn2)cs1` (stereo partly drawn) [Compound A80, 1-((1R)-1-(5-(2-(2,2-Difluorocyclopropyl)phenyl)pyridin-2-yl)-2-hydroxyethyl)-3-(2-ethynylthiazol-4-yl)urea], ≤ 200 nM.
For the compound `C#Cc1nc(NC(=O)N[C@@H](CO)c2ccc(-c3ccc(F)cc3C3CC3(F)F)cn2)cs1` (stereo partly drawn) [Compound A81, 1-((1R)-1-(5-(2-(2,2-Difluorocyclopropyl)-4-fluorophenyl)pyridin-2-yl)-2-hydroxyethyl)-3-(2-ethynylthiazol-4-yl)urea], the EC50 is ≤ 200 nM.
In the case of `C#Cc1nc(NC(=O)N(C)[C@@H](CO)c2ccc(-c3ccc(F)cc3C3CC3(F)F)cn2)cs1` (stereo partly drawn) [Compound A82, 1-((1R)-1-(5-(2-(2,2-Difluorocyclopropyl)-4-fluorophenyl)pyridin-2-yl)-2-hydroxyethyl)-3-(2-ethynylthiazol-4-yl)-1-methylurea], the EC50 is ≤ 200 nM.
With `C#Cc1nc(NC(=O)N[C@@H](COC(N)=O)c2ccc(-c3ccc(F)cc3C3CC3(F)F)cn2)cs1` (stereo partly drawn) [Compound A83, (2R)-2-(5-(2-(2,2-Difluorocyclopropyl)-4-fluorophenyl)pyridin-2-yl)-2-(3-(2-ethynylthiazol-4-yl)ureido)ethyl carbamate] the figure was ≤ 200 nM.
Turning to `C#Cc1nc(NC(=O)N(C)[C@@H](COC(N)=O)c2ccc(-c3ccc(F)cc3C3CC3(F)F)cn2)cs1` (stereo partly drawn) [Compound A84, (2R)-2-(5-(2-(2,2-Difluorocyclopropyl)-4-fluorophenyl)pyridin-2-yl)-2-(3-(2-ethynylthiazol-4-yl)-1-methylureido)ethyl carbamate], the EC50 is ≤ 200 nM.
